Source: patent US20210155814A1, “ACTIVE-ENERGY-RAY-CURABLE AQUEOUS COMPOSITION, ACTIVE-ENERGY-RAY-CURABLE AQUEOUS INK, STORED CONTAINER, IMAGE FORMING APPARATUS, IMAGE FORMING METHOD, CURED PRODUCT, AND DECORATED PRODUCT” (priority 2019, published 2021)

How the values were obtained:
Female mice = assay: Skin sensitization test by local lymph node assay (LLNA) method, SI value of materials; type: in vivo; conditions: for SI (stimulation index, LLNA): test substance 50.0 w/v % in acetone:olive oil 4:1, 25 microliters per auricle, once a day for three days, BrdU intake by ELISA
Description: The present disclosure can provide an active-energy-ray-curable aqueous composition excellent in scratch resistance and storage stability and safe in skin sensitizing potential. Safety in skin sensitizing potential means that a SI value, which is a degree of sensitizing potential, is 3 or lower in a skin sensitization test by the LLNA method.
The “LLNA method” mentioned above is a skin sensitization test stipulated in OECD (Organisation for Economic Co-operation and Development) Test Guidelines. As described in literatures (e.g., “Functional Material”, September 2005 issue, Vol. 25, No. 9, p. 55), LLNA method judges that a stimulation index (SI value) of 3 or lower as a degree of skin sensitizing potential is non-problematic in terms of skin sensitizing potential.
The SI value was measured in the manner described below by a skin sensitization test according to a local lymph node assay (LLNA) method.
As the positive control substance, α-hexyl cinnamaldehyde (HCA, obtained from Wako Pure Chemical Industries, Ltd.) was used.
As the medium, a mixture liquid containing acetone (obtained from Wako Pure Chemical Industries, Ltd.) and olive oil (obtained from Fudimi Pharmaceutical Co., Ltd.) in a volume ratio of 4:1 (acetone:olive oil) was used.
Female mice were acclimated to the test substance, the positive control, and the medium control for 8 days including 6-day quarantine. No abnormalities were found in all of the animals during the quarantine/acclimation period.
Based on the body weights measured 2 days before the initiation of sensitization, the animals were separated into […] (4 mice/group) by the body weight stratified random sampling method in a manner that the body weight of each individual was within ±20% of the average body weight of all individuals. Each of the animals was 8 weeks old to 9 weeks old at the time of the initiation of sensitization.
The test substance was weighed out in a volumetric flask, and the volume of the test substance was adjusted to 1 mL with addition of the medium. The prepared liquid was poured into a light-blocked airtight container (formed of glass).
HCA was accurately weighed out in an amount of about 0.25 g, and adjusted to 1 mL with addition of the medium, to prepare a 25.0 w/v % liquid. The prepared liquid was poured into a light-blocked airtight container (formed of glass).
5-Bromo-2′-deoxyuridine (BrdU, obtained from Nacalai Tesque, Inc.) (200 mg) was accurately weighed out in a volumetric flask, and dissolved in saline (obtained from Otsuka Pharmaceutical Co., Ltd.) added in the flask by ultrasonic irradiation. Subsequently, the resultant was adjusted to a volume of 20 mL, to prepare a 10 mg/mL liquid (BrdU preparation liquid). The prepared liquid was sterilized by filtration through a sterilized filtration filter and poured into a sterilized container.
The preparation liquids of each test substance and the positive control substance, and the medium were each applied to both auricles of the animals by 25 microliters each. A micropipetter was used for the application. This treatment was performed once a day for three consecutive days.
About 48 hours after the final sensitization, the BrdU preparation liquid was intraperitoneally administered once by 0.5 mL per animal.
About 24 hours after the BrdU administration, the animals were subjected to euthanasia, and their auricular lymph nodes were removed. Surrounding tissues of the auricular lymph nodes were removed, and the auricular lymph nodes on both sides were collectively weighted. The average and the standard error of the weights of the auricular lymph nodes were calculated per group. After the mass measurement, the auricular lymph nodes were cryopreserved per individual in a biomedical freezer set to −20 degrees C.
After the auricular lymph nodes were returned to room temperature, the auricular lymph nodes were ground with addition of saline and suspended in the saline. […]

[1] = type: in vivo; conditions: OECD TG404
Description: (§1) As a safety test, AMES test was performed according to OECD test guideline TG471 (±S9 mix), and the result was negative. Oral toxicity was tested according to OECD test guideline TG423. […] Skin stimulation was tested according to OECD test guideline TG404, and the result was PII=0.5. Skin sensitizing potential was tested according to OECD test guideline TG442B.

[2] = type: cell-based; conditions: OECD TG471, ±S9 mix
Description: as §1

[3] = Oral toxicity according to OECD test guideline TG423; type: in vivo
Description: as §1

| Structure (SMILES) | SI (stimulation index, LLNA) (Female mice) | further results |
| --- | --- | --- |
| C=CC(=O)NCCCOCCOCCOCCCNC(=O)C=C [Example B2-10] | FUJIFILM Corporation, FOM-03008, SI = 1.24 |  |
| C=CC(=O)N(C)CCCCCCN(C)C(=O)C=C [Example B2-4] | (see Synthesis example 12) SI = 1.58 |  |
| C=CC(=O)N(CC)CCN(CC)C(=O)C=C [Example B2-2] | (see Synthesis example 10) SI = 1.33 |  |
| C=C(C)C(=O)OCC(CC)(COC(=O)C(=C)C)COC(=O)C(=C)C [Example B1-3] | Shin-Nakamura Chemical Co., Ltd., “TMPT”, SI = 1.03 |  |
| C=C(C)C(=O)OCCO [Example A2-1, 2-hydroxyethyl methacrylate, reference compound] | Tokyo Chemical Industry Co., Ltd., “2-hydroxyethyl methacrylate” SI = 1.26 |  |
| C=CC(=O)NCCNC(=O)C=C [Example B2-6] | Tokyo Chemical Industry Co., Ltd., (product No. E1086), SI = 1.23 |  |
| C=CC(=O)N(C)C(C)C(=O)OC (stereo not drawn) [Example A1-4, N-acryloyl-N-methylalaninemethyl ester] | (see Synthesis example 4) SI = 1.12 |  |
| C=CC(=O)OC1CC2CCC1(C)C2(C)C (stereo not drawn) [Example A2-2, Isobornyl acrylate, reference compound] | Osaka Organic Chemical Industry Ltd., “Isobornyl acrylate”, SI = 8.30 |  |
| C=CC(=O)N(C)CC(=O)OC [Example A1-1, N-acryloyl-N-methylglycinemethyl ester] | (see Synthesis example 1) SI = 1.00 | PII (skin stimulation) [1]: 0.5; SI value (skin sensitizing potential) (Female mice; OECD test guideline TG442B): 1.00; AMES test result [2]: negative; Fatal cases in oral toxicity test ([3]; OECD TG423): none of six cases was a fatal case; LD50 ([3]; in vivo, 2000 mg/kg, OECD TG423, oral): ≥ 2000 mg/kg |
| C=CC(=O)NCCN(CCNC(=O)C=C)C(=O)C=C [Example B2-9] | FUJIFILM Corporation, FOM-03007, SI = 1.44 |  |
| C=CC(=O)NCCN(CCN(CCNC(=O)C=C)C(=O)C=C)C(=O)C=C [Example B2-11] | FUJIFILM Corporation, FOM-03009, SI = 1.52 |  |
| C=CC(=O)N(C)CCOC(C)=O [Example A1-8, N-(2-Acetyloxyethyl)-N-methyl acrylamide] | (see Synthesis example 13) SI = 1.10 |  |
| C=CC(=O)N1CCC(C(=O)OCC)CC1 [Example A1-7, ethyl N-acryloylpiperidine-4-carboxylate] | (see Synthesis example 7) SI = 1.70 |  |
| C=C(C)C(=O)OCC(COC(=O)C(=C)C)OC(C)=O [Example B1-6, 2-acetyl-1,3-glycerol dimethacrylate] | (see Synthesis example 8) SI = 1.40 |  |
| C=CC(=O)NC(O)C(O)NC(=O)C=C (stereo not drawn) [Example B2-7] | Tokyo Chemical Industry Co., Ltd., (product No. D2864), SI = 1.01 |  |
| C=CC(=O)N(C)CCN(C)C(=O)C=C [Example B2-1] | (see Synthesis example 9) SI = 1.20 |  |
| C=C(C)C(=O)OCCOCCOC(=O)C(=C)C [Example B1-1] | Shin-Nakamura Chemical Co., Ltd., “2G”, SI = 1.05 |  |
| C=CC(=O)N(C)CC(=O)OCC [Example A1-2, N-acryloyl-N-methylglycineethyl ester] | (see Synthesis example 2) SI = 1.02 |  |
| C=CC(=O)NCNC(=O)C=C [Example B2-5] | Tokyo Chemical Industry Co., Ltd., (product No. M2877), SI = 1.08 |  |
